{
  "source": "paper PMC10671074",
  "about": "“Tumor Regression upon Intratumoral and Subcutaneous Dosing of the STING Agonist ALG-031048 in Mouse Efficacy Models” (International Journal of Molecular Sciences, 2023)",
  "key": {"[1]": {"test_system": "HEK 293 cells lacking functional STING", "assay": "HEK 293 STING Dual Null IRF reporter assay", "method": "Assays were set up after allowing cells to adhere for 48 h. Compounds dissolved in water were serially diluted in dosing buffer containing 10 µg/mL of digitonin (MP Biomedicals, Solon, OH, USA). Media were aspirated from the cells, and 50 µL of buffer with compound was added in triplicate. […] The next day, 20 µL of media was transferred to two new plates, and either 50 µL of QuantiLuc™ (Invivogen) to measure IFN-β expression or 80 µL of QuantiBlue™ (Invivogen) to measure IRF activity were added. […] An aliquot of 100 µL of CellTiter-Glo® (Promega, Madison, WI, USA) was added to the original plate still containing the cells, and luminescence was determined to measure viability. All readouts were measured on an Envision plate reader from Perkin Elmer. Data were analyzed using GraphPad™ Prism’s version 8.0 [Agonist] vs. response—variable slope (four parameters) model.\nwith increasing concentrations of the STING agonists or IFN‐β. After 24 hours, IRF reporter activity"}, "Plasma stability, mouse": {"assay": "Plasma stability, mouse", "type": "in vitro ADME", "conditions": "37 °C, read-out: Plasma t½, Mouse", "description": "The plasma stability assay was carried out on 96-well microtiter plates. The test compounds at 5 µM and the reference compound (propantheline) at 1 µM final concentration were incubated separately at 37 °C with mouse or human plasma for 0, 30, 60, and 240 min. At the end of each incubation time point, 300 μL of the quenching solution (50% acetonitrile, 50% methanol, and 0.05% formic acid) containing the internal standard was added to each well. The incubation plates were sealed, vortexed, and centrifuged at 4 °C for 15 min at 4000 rpm. The supernatant was transferred to fresh plates for LC/MS/MS analysis of the test compounds. The peak area ratios of each test compound over the internal standard were plotted against incubation time, and the t½ was calculated from the curve assuming first-order kinetics."}, "Hepa1–6 tumors": {"test_system": "Hepa1–6 tumors", "assay": "Hepa1–6 mouse hepatocellular carcinoma model", "type": "in vivo", "description": "The animals were fed ad libitum water (0.2-μm filtered, reverse osmosis, autoclaved), and standard irradiated rodent chow. The mice were housed on autoclaved, crushed corncob bedding, which was changed weekly, on a 12 h light cycle at 20–26 °C and 40–70% humidity.\nThe Hepa1–6 tumor cells were maintained in vitro in DMEM supplemented with 10% FBS at 37 °C in an atmosphere of 5% CO2 in air. Cells in the exponential growth phase were harvested and quantitated using a cell counter, adjusted to 5 × 10^7/mL in PBS before tumor inoculation.\nEach mouse was inoculated subcutaneously in the right front flank region with Hepa1–6 tumor cells (5 × 10^6) in 0.1 mL PBS for tumor development. After tumor cell inoculation, the animals were checked daily for morbidity and mortality and for any effects of tumor growth or test articles on behavior such as mobility, food and water consumption, eye/hair matting, and any other abnormalities. Dosing started when the average tumor volume reached 98 mm^3. The anti-PD-1 antibody was dosed IP at 10 mg/kg twice per week (BIW), while ALG-031048 was dosed IT at 25 and 100 μg/animal on Days 1, 5, and 9. Tumor volumes were measured […], as described above.\nFigure S6. A: Tumor regression in Hepa1‐6 tumor‐bearing […] mice upon IT treatment with three doses of 25 μg (light blue) or 100 μ g ALG‐031048 (dark blue), in comparison to treatment with 10 mg/kg anti‐PD‐1 antibody twice per week, 6 doses total (red). Vehicle‐treated animals are shown in black; shown are the mean tumor volumes ± standard deviation for each group of 10 animals.\nIrregular, crater‐shaped tumors prevented accurate tumor volume measurement between Days 8‐\n25. Treatment started when tumors reached an average volume of 98 mm3. Statistical analysis pro‐ vided in Table S4. B: Tumor weight for each group at the end of the study. Statistical analysis pro‐ vided in Table S5. C: Plasma cytokine levels 6 hours after the first dose. Each symbol represents one animal as well as the mean of the group (n=10). Unpaired t‐test was used to compare different groups: all groups for al l cytokines were statistically significant from each other with P‐values of < 0.0001 with the following exceptions: vehicle vs anti‐PD‐1 were non‐significant (all cytokines); the […]"}, "STING R232": {"target": "STING R232 (Homo sapiens, UniProt Q86WV6, H232R)", "sequence (Q86WV6 whole entry H232R)": "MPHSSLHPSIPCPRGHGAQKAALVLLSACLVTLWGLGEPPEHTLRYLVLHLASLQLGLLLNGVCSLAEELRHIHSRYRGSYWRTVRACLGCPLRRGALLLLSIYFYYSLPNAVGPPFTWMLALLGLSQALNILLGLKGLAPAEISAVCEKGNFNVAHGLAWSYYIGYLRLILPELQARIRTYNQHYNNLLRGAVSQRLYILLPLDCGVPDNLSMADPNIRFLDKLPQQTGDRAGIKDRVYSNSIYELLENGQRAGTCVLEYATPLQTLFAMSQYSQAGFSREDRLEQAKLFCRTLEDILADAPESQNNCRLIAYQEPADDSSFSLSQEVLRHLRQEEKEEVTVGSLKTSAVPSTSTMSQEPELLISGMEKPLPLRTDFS", "assay": "HEK 293 STING R232 IRF reporter assay", "type": "cell-based", "parameters": "host or cells: 293T-Dual hSTING-R232 (HEK 293T derived)", "conditions": "HEK 293 STING R232 cells, digitonin dosing buffer 30 min, 20 h; mean±standard deviation; read-out: Reporter Cell Assay EC50, STING R232 IRF", "description": "Assays were set up after allowing cells to adhere for 48 h. Compounds dissolved in water were serially diluted in dosing buffer containing 10 µg/mL of digitonin (MP Biomedicals, Solon, OH, USA). Media were aspirated from the cells, and 50 µL of buffer with compound was added in triplicate. […] An aliquot of 100 µL of CellTiter-Glo® (Promega, Madison, WI, USA) was added to the original plate still containing the cells, and luminescence was determined to measure viability. All readouts were measured on an Envision plate reader from Perkin Elmer. Data were analyzed using GraphPad™ Prism’s version 8.0 [Agonist] vs. response—variable slope (four parameters) model."}, "[2]": {"test_system": "EMT-6 murine mammary carcinoma", "assay": "Re-challenge with EMT-6 of mice with complete CT26 tumor regression", "type": "in vivo, mouse", "conditions": "Figure 5D; previously 100 μg IT × 3; EMT-6 right flank", "description": "Ten naïve, age-matched female BALB/c mice were used as controls. […] Tumor growth was measured as described above."}},
  "data": [
    {"smiles": "CO[C@H]1[C@H]2OP(=O)(O)OC[C@@]34C[C@@H]3[C@@H](n3cnc5c(N)ncnc53)[C@H](O)[C@@H]4O[P@](=O)(S)OC[C@H]1O[C@H]2n1cnc2c(=O)[nH]c(N)nc21", "note": "[ALG-031048]", "values": [
      {"measurement": "STING dependence of cellular activation (IRF reporter)", "setting": "[1]; HEK 293 R232 cells vs control cells lacking STING expression, 24 hours", "result": "dependent on the expression of STING"},
      {"measurement": "EC50", "setting": "[1]; Homo sapiens, HEK293, read-out: Reporter Cell Assay EC50, STING Dual Null IRF", "result": "> 100000", "unit": "nM"},
      {"measurement": "half-life at 5 µM", "setting": "Plasma stability, mouse", "result": "> 1", "unit": "h"},
      {"measurement": "Tumor weight at end of study", "setting": "Hepa1–6 tumors; Hepa1–6, IT 25 and 100 μg", "result": "reduction in tumor weight"},
      {"measurement": "Tumor reduction at end of study", "setting": "Hepa1–6 tumors; Hepa1–6, three IT doses of 25 μg (Days 1, 5, 9)", "result": 12, "unit": "%"},
      {"measurement": "Mean tumor reduction at end of study", "setting": "Hepa1–6 tumors; Hepa1–6, three IT doses of 100 μg (Days 1, 5, 9)", "result": 88, "unit": "%"},
      {"measurement": "Complete tumor regression, animals", "setting": "Hepa1–6 tumors; Hepa1–6 model", "result": 100, "unit": "%"},
      {"measurement": "EC50", "setting": "STING R232", "result": 29, "unit": "nM"},
      {"measurement": "EMT-6 tumor growth after re-challenge", "setting": "[2]", "result": "formed in these animals with kinetics comparable to those of naïve animals"}
    ]}
  ]
}
